Experimental data taken from patent US4593090A, “Novel nitrosourea compounds, method for preparing same, and pharmaceutical composition containing same” (Gogo Kimura, priority 1981, dated 1986).
Where two headings read alike, the source gives them in different places.

Key:
[1] = test system: Leukemia L1210; test: Activity against Leukemia L1210, intraperitoneal, increase in life span of mice; format: in vivo, female mice (BDF1 family); conditions: for Survivors after 60 days / Max. ILS % / Therapeutic ratio TR: ip; for Survivors after 60 days: 6-membered group; for Max. ILS %: 60-day observation, versus control; for Therapeutic ratio TR: O.D./ILS30; for ED (maximum ILS) / ED30: Mus musculus, L1210, ip; for ED (maximum ILS): read-out: O.D. (optimum dosage); for ED30: read-out: ILS30
In short: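 Mice (female BDF1, 20–23 g) carrying 1×10^5 ip-implanted L1210 cells were given daily ip or oral doses for 5 days; ILS% came from mean survival over 60 days relative to controls.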

[2] = test system: Leukemia L1210; test: Activity against Leukemia L1210, oral, increase in life span of mice; format: in vivo, female mice (BDF1 family); conditions: for Survivors after 60 days / Max. ILS % / Therapeutic ratio TR: oral; for Survivors after 60 days: 6-membered group; for Max. ILS %: 60-day observation, versus control; for Therapeutic ratio TR: O.D./ILS30; for ED (maximum ILS) / ED30: Mus musculus, L1210; for ED (maximum ILS): read-out: O.D. (optimum dosage); for ED30: read-out: ILS30
Description: Tests were conducted in accordance with the method for measuring antitumor activity of National Cancer Center Tokyo (A, Hoshi et al, Farumashia 9 464 (1973)). Test compounds were each intraperitoneally (referred to as ip) or orally (referred to as op) administered once a day for 5 successive days to a 6-membered group of femal mice (BDF1 family, each weighing 20 to 23 g) 24 hours after 1×10^5 cells of Leukemia L1210 have been implantated into the abdominal cavities of the mice, and the effect was evaluated by comparing the survival days of treated groups with those of an untreated group of mice (control group) in 60-day observation. An increase percentage of life span (ILS%) was calculated from said average survival days compared with those of the control group. Further, therapeutic ratio (O.D./ILD30, referred to as T.R.) of each tested compound was calculated from the daily dosage of the compound necessary to increase said average survival days by 30% as compared with the control group (this dosage is referred to as ILS 30) and the daily dosage giving a maximum increase of life span to mice implantated with L1210 cells, namely an optimum dosage (referred to as O.D.). The results of five successive days intraperitoneal administrations of test compounds were shown in Tables I to III, and those of five successive oral administrations in Table IV.

[3] = test system: Ehrlich acites carcinoma; test: Growth-inhibiting effect against Ehrlich acites carcinoma; format: in vivo, male mice; conditions: 5 days; for response vs control in vivo at 3.2 mg/kg: 3.2 mg/kg/day ip; for response vs control in vivo at 6.3 mg/kg: 6.3 mg/kg/day ip
Description: Ehrlich acites carcinoma (1×10^7 cells) was implantated into the abdominal cavities of a 6-membered group of male mice. Test compounds (solutions or suspensions in 1% Nikohl HCO-60) were each intraperioneally administered once a day 5 successive days to the mice 24 hrs. after the implantation. Total packed cell volumes [TPCV, namely, total packed volumes of Acites carcinoma] were determined 7 days after the implantation to calculate growth ratio of tumor [T/C%; T: packed volume of Acites carcinoma in treated groups, C: packed volume of Acites carcinoma in an untreated group]. Acitivity is represented by - when T/C% is 100-66, by + when T/C% 65-41, by ++ when T/C% 40-11, and by +++ when T/C% 10-0.

[4] = Acute toxicity (LD50, Behrens-Karber method); format: in vivo, ICR mice; conditions: ip, mortality during 30 days; for LD50 at 720 h: mouse, in vivo
Description: Test compounds, dissolved or suspended in 0.5% aqueous CMC, were each intraperitoneally administered to ICR mice in a dose of 0.1 ml per 10 g body weight. LD50 (mg/kg) value of each test compound was calculated from the mortality of mice during 30 days by the Behrens-Karber method.

[5] = ip once a day for 5 successive days, daily dosage giving maximum increase of life span
[6] = ip once a day for 5 successive days, daily dosage increasing average survival days by 30%
[7] = oral once a day for 5 successive days, daily dosage giving maximum increase of life span
[8] = oral once a day for 5 successive days, daily dosage increasing average survival days by 30%
[9] = Mus musculus, Ehrlich, 120 h, read-out: Activity
[10] = Mus musculus, Ehrlich, 120 h, read-out: T/C %

| Molecule | Survivors after 60 days [1] | Max. ILS % [1] | Therapeutic ratio TR [1] | Survivors after 60 days [2] | Max. ILS % [2] | Therapeutic ratio TR [2] | ED (maximum ILS) [1, 5] | ED30 [1, 6] | ED (maximum ILS) [2, 7] | ED30 [2, 8] | LD50 at 720 h [4] | further results |
| --- | --- | --- | --- | --- | --- | --- | --- | --- | --- | --- | --- | --- |
| 3-tert-butyl-3-(methoxy-2-n-butyl β-D-glucopyranose-6-yl)-1-(2-chloroethyl)-1-nitrosourea [Compound 178] | 6/6 | > 700% | 66.5 | 5/6 | > 625% | 22.4 |  |  |  |  |  | O.D. (optimum dosage) [1, 5]: 180 mg/kg; ILS30 [1, 6]: 2.71 mg/kg; O.D. (optimum dosage) [2, 7]: 210 mg/kg; ILS30 [2, 8]: 9.38 mg/kg; Activity ([3]; 25 mg/kg/day ip): +++ (T/C% 10-0); T/C % ([3]; 25 mg/kg/day ip): 0%; Activity ([3]; 100 mg/kg/day ip): +++ (T/C% 10-0); T/C % ([3]; 100 mg/kg/day ip): 0%; LD50 [4]: 570 mg/kg |
| CO[C@H]1O[C@H](CNC(=O)N(CCCl)N=O)[C@@H](O)[C@H](O)[C@H]1O [Compound 6MCαG, 3-(methyl α-D-glucopyranose-6-yl)-1-(2-chloroethyl)-1-nitrosourea, reference compound] | 6/6 | > 700% | 25.5 | 6/6 | > 700% | 6.86 | 13.5 mg/kg | 0.53 mg/kg | 16.8 mg/kg | 2.45 mg/kg | 40 mg/kg | Activity (toxicity in words) ([3]; 12.5 mg/kg/day ip): Toxic (2/6); response vs control in vivo at 3.2 mg/kg [3, 9]: 0 to 10%; response vs control in vivo at 3.2 mg/kg [3, 10]: 0%; response vs control in vivo at 6.3 mg/kg [3, 9]: 0 to 10%; response vs control in vivo at 6.3 mg/kg [3, 10]: 0%; response vs control in vivo at 12.5 mg/kg ([3]; Mus musculus, Ehrlich, 120 h, 12.5 mg/kg/day ip, read-out: T/C %): 0% |
| CCOCCO[C@H]1O[C@H](CO)[C@@H](O)[C@H](O)[C@H]1N(CCC(C)(C)C)C(=O)N(CCCl)N=O [Compound 192, 3-(3,3-dimethyl-n-butyl)-3-(2-ethoxyethyl α-D-glucopyranose-2-yl)-1-(2-chloroethyl)-1-nitrosourea] | 6/6 | > 700% | 58.4 | 5/6 | > 625% | 20.3 | 160 mg/kg | 2.74 mg/kg | 200 mg/kg | 9.85 mg/kg | 515 mg/kg |  |
| COCCOCCO[C@H]1O[C@H](CN(C(=O)N(CCCl)N=O)C(C)(C)C)[C@@H](O)[C@H](O)[C@H]1O [Compound 197] | 6/6 | > 700% | 59.2 | 5/6 | > 625% | 21.6 | 160 mg/kg | 2.7 mg/kg | 200 mg/kg | 9.26 mg/kg | 530 mg/kg |  |
| COC(C)CCO[C@H]1O[C@H](CN(C(=O)N(CCCl)N=O)C(C)(C)C)[C@@H](O)[C@H](O)[C@H]1O (stereo partly drawn) [Compound 198, 3-tert-butyl-3-(3-methoxy-n-butyl α-D-glucopyranose-6-yl)-1-(2-chloroethyl)-1-ntirosourea] | 6/6 | > 700% | 65.3 | 5/6 | > 640% | 22.7 | 180 mg/kg | 2.76 mg/kg | 220 mg/kg | 9.69 mg/kg | 570 mg/kg |  |
| O=NN(CCCl)C(=O)N[C@H]1C(O)O[C@H](CO)[C@@H](O)[C@@H]1O (some centres unmarked) [DCNU, reference compound] | 5/6 | > 625% | 8.9 | 0/6 | 20% |  | 6.2 mg/kg | 0.7 mg/kg | 100 mg/kg |  | 39 mg/kg |  |
